According to patent US8227207B2, “Bioactive peptides derived from the proteins of egg white by means of enzymatic hydrolysis” (Consejo Superior de Investigaciones Cientifcas, priority 2004, dated 2012):
“Also recorded” adds a separate entry of the source. Residues, ends and D or L forms follow the SMILES beside them.

How the values were obtained:
Wistar-Kyoto rats (WKY) = test: Systolic arterial pressure (tail cuff) in normotense Wistar-Kyoto rats; format: in vivo, rat; settings: highest dose used, intragastric probe
Procedure: The effect is studied of various identified peptides and of some products containing them (for example egg white hydrolysed with pepsin for 3 hours and the fraction of it less than 3000 Da) on the arterial pressure of spontaneously hypertensive rats (SHR) and Wistar-Kyoto rats (WKY) which are the normotense controls for the SHR.
This study is conducted with SHR (10) and WKY of 17-24 weeks old and weight between 300 and 350 g, coming from Charles River Laboratories España, S. A. The rats are kept in cages of five by five and maintained at a stable temperature of 25° C. with light-dark cycles of 12 hours, ingesting freely available water and food. In order to carry out the measurement of systolic arterial pressure (SAP) “tail cuff” equipment is used (Le5001, Letica) which automatically provides a digital value of the SAP and records and facilitates the cardiac frequency of the animals. Various measurements are made and the average of all of them is obtained in order to achieve a reliable value of the SAP. Before positioning the cuff and transducer in the tail of the rats, the rats are exposed to a temperature of close to 30° C. in order to facilitate dilation of the caudal artery. Also, in order to ensure the reliability of the measurement, the animals are made to get used to the procedure for two weeks prior to conducting each assay in question.
The administration of the products to be assayed is done by means of an intragastric probe in a time margin of between 9 and 10 o'clock in the morning. The SHR used for the study had SAP values of between 230 and 280 mm Hg. The WKY used for the study at that moment had SAP values of between 160 and 200 mm Hg. Measurements of the SAP were taken from the animals periodically, every 2 hours, up to 8 hours post-administration of the products to be assayed; in addition, a SAP measurement was taken 24 hours after the administration of those products. As negative control (in order to establish the circadian variation of the SAP in probed rats) the measurements of the SAP obtained in rats which had been administered 1 ml of water by means of intragastric probe were used. As positive control, the measurements of the SAP obtained in rats which had been administered 50 mg/kg of Captopril (prototype ACEI drug) by means of intragastric probe were used. This dose of Captopril was administered to each rat in a volume of 1 ml. In order to establish the effect of the unhydrolysed egg white on the arterial pressure of the animals, similar assays to those described above were conducted, in which the animals were treated by the same procedure with 200 mg/kg of previously freeze-dried egg white (reference).
The results obtained are grouped and the mean±the standard error of measurement (SEM) is obtained for a minimum of 9 homogenous assays. […]

[1] = Antioxidant activity, ABTS radical cation decolorization assay (TEAC)
Excerpt: In order to measure the antioxidant activity, the method developed by R. Re, N. Pellegrini, A. Proteggente, A. Pannala, M. Yang and C. Rice-Evans (Antioxidant activity applying an improved ABTS radical cation decolorization assay, Free Radical Biological Medicine, 1999, 26: 1231-1237) is used. The method is based on the disappearance of the radical ABTS^•+ (2,2-azinobis(3-ethylbenzothiazoline-6-sulphonic) acid) owing to the reducing action of different samples with antioxidant activity. […] The antioxidant activity is detected by the fall in the 734 nm absorbency time.
In order to generate the radical […], the compound ABTS (Sigma), dissolved in water at a concentration of 7 mM, is brought into contact with 2.45 mM potassium persulphate in a ratio of 1:2 for 24 hours in the absence of light. After 24 hours, the absorbency at 734 nm is adjusted to a value of 0.70 ±0.02 with 5 mM of phosphate buffer salt (PBS), 138 mM of NaCl, pH =7.4. In a standard experiment, 1 ml of this solution is added to 10 μl of the sample (1.5 mM) dissolved in 0.02 M sodium phosphate buffer, pH =6.5 The experiment is conducted in triplicate, with each sample being incubated with the radical ABTS^•+ for 10 minutes at 37° C., with readings of the absorbency at 734 nm being taken at 1, 6 and 10 minutes. Used as blank is 0.02 M sodium phosphate buffer, pH =6.5 and at the same time as the incubation of the samples is carried out, the radical […] is incubated without any antioxidant agent (control). The antioxidant activity of each sample is calculated with respect to the absorbency at 734 nm shown by the control. The antioxidant activity of the sample is expressed in relation to the antioxidant activity of TROLOX® (6-hydroxy-2,5,7,8-tetramethylchroman-2-carboxylic acid) (Sigma), analogous to vitamin E, by means of a TEAC value (Trolox equivalent antioxidant capacity) at a certain time.
Different ways of calculating the TEAC value have been developed. We use the method described by F. W. P. C. van Overlveld, G. R. M. M. Haenen, J. Rhemrev, J. P. W. Vermeiden and A. Bast (Tyrosine as important contributor to the antioxidant capacity of seminal plasma, Chemical and Biological Interactions, 2000, 127: 151-161), which is valid for calculating the TEAC value of a pure compound, which provokes a decrease in the absorbency which linearly increases as the concentration is increased. In this case, it would only be necessary to calculate a certain concentration of a compound in order to be able to calculate its TEAC value.
The value 0.2845 represents the decrease in absorbency caused by 1 mM of 6-hydroxy-2,5,7,8-tetramethylchroman-2-carboxylic acid.

SMILES: CC[C@H](C)[C@H](NC(=O)[C@@H]1CCCN1C(=O)[C@H](Cc1ccc(O)cc1)NC(=O)[C@H](CCCNC(=N)N)NC(=O)[C@H](CCC(=O)O)NC(=O)[C@H](CCC(=O)O)NC(=O)[C@H](C)NC(=O)[C@@H](N)Cc1ccc(O)cc1)C(=O)N[C@@H](CC(C)C)C(=O)O [SEQ. ID. N^o 6] (H-YAEERYPIL-OH; N-terminus and C-terminus assumed)
- change in SAP in normotense rats (in words) (Wistar-Kyoto rats (WKY)): not in normotensed Wistar-Kyoto rats; also recorded: none of these compounds modifies the SAP
- antioxidant activity towards free radicals (in words) [1]: possesses antioxidant activity
- times more antioxidant activity than 6-hydroxy-2,5,7,8-tetramethylchroman-2-carboxylic acid ([1]; 1 mg versus 1 mg): 1.3 times
- TEAC (Trolox equivalent antioxidant capacity) ([1]; 1 minute): 0.8
- TEAC (Trolox equivalent antioxidant capacity) ([1]; 6 minutes): 1.2
- TEAC (Trolox equivalent antioxidant capacity) ([1]; 10 minutes): 1.3
